A value given as a limit tells only on which side of the number the result lay.

The nature of this assay: Biochemical Assay: Test compounds were placed in a Greiner Bio-One (Monroe, N.C.) 1536-well black solid bottom assay plate. 200 millimolar (mM) Tris HCl, pH 7.4, 100 micromolar (μM) EDTA and 0.01% TWEEN-20™, final concentration, was used as the assay buffer. The LDHA reagent was 2 nanomolar (nM) Human LDHA (Meridian Life Science, Inc., Memphis, Tenn.), final concentration, in assay buffer.
Consider `Cc1ccc(-c2cccc(-c3nn(-c4nc(C(=O)O)cs4)c(CC4CC4)c3Cc3ccc(S(N)(=O)=O)cc3)c2)cc1`, for which the IC50 (commonly the concentration at which inhibition is half-maximal) was under 100 nM.

`NS(=O)(=O)c1ccc(Cc2c(-c3ccc(F)c(C(F)(F)F)c3)nn(-c3nc(C(=O)O)cs3)c2CC2CC2)cc1F` returned an IC50 of under 100 nM. In the case of `NS(=O)(=O)c1ccc(Cc2cn(-c3nc(C(=O)O)cs3)nc2-c2ccccc2)cc1` it was under 100 nM; in that of `CCOC(=O)c1csc(-n2nc(-c3cccc(-c4ccccc4)c3)c(Cc3ccc(S(N)(=O)=O)c(F)c3)c2CC2CC2)n1`, over 57000 nM; in that of `COc1cccc(-c2cccc(-c3c(Cc4ccc(S(N)(=O)=O)cc4F)c(C4CC4)nn3-c3nc(C(=O)O)cs3)c2)c1`, “in the range around 29000 nM”. For `CCOC(=O)c1csc(-n2nc(C3CCCCC3)c(Oc3ccc(S(N)(=O)=O)cc3)c2-c2ccccc2)n1` the value was over 57000 nM; for `Cc1ccc(C#Cc2cc(-c3nn(-c4nc(C(=O)O)cs4)c(CC4CC4)c3Cc3ccc(S(N)(=O)=O)c(F)c3)ccc2F)s1`, under 100 nM. In the case of `NS(=O)(=O)c1ccc(Cc2c(-c3cccc(-c4ccc(F)cc4)c3)nn(-c3nc(C(=O)O)cs3)c2C2CC2)cc1F` it was under 100 nM; in that of `CCOC(=O)c1csc(-n2nc(-c3ccc(F)c(-c4cccc(F)c4)c3)c(Cc3ccc(S(N)(=O)=O)c(F)c3)c2C2CC2)n1`, “in the range around 29000 nM”. Regarding `Cc1ccc(-c2cc(-c3c(Cc4ccc(S(N)(=O)=O)c(F)c4)c(CC4CC4)nn3-c3nc(C(=O)O)cs3)ccc2F)cc1`, the IC50 result is “in the range around 29000 nM”. In the case of `Cc1noc(C)c1-c1cc(-c2c(Cc3ccc(S(N)(=O)=O)cc3F)c(CC3CC3)nn2-c2nc(C(=O)O)cs2)ccc1F` it was over 57000 nM; in that of `NS(=O)(=O)c1ccc(Cc2c(-c3ccc(F)c(C#CC4(F)CCOC4)c3)nn(-c3nc(C(=O)O)cs3)c2CC2CC2)cc1F` (stereo not drawn), under 100 nM. For `C#Cc1c(Cc2ccc(S(N)(=O)=O)cc2)c(-c2ccccc2)nn1-c1nc(C(=O)O)cs1` the value was “in the range around 29000 nM”. In the case of `NS(=O)(=O)c1ccc(Cc2c(-c3ccc(F)c(-c4cccc(CN5CCOCC5)c4)c3)nn(-c3nc(C(=O)O)cs3)c2CC2CC2)cc1F` it was under 100 nM; in that of `NS(=O)(=O)c1ccc(Cc2c(-c3ccc(F)c(C4=CCNCC4)c3)nn(-c3nc(C(=O)O)cs3)c2CC2CC2)cc1F`, under 100 nM; in that of `NS(=O)(=O)c1ccc(Cc2c(-c3ccc(F)c(C#CC4(O)COC4)c3)nn(-c3nc(C(=O)O)cs3)c2CC2CC2)cc1F`, under 100 nM. In the case of `CC#Cc1cc(-c2nn(-c3nc(C(=O)O)cs3)c(CC3CC3)c2Cc2ccc(S(N)(=O)=O)c(F)c2)ccc1F`, the IC50 is under 100 nM.

`COc1ccc(-c2cc(O)n(-c3nc(C(=O)O)cs3)n2)cc1` registered an IC50 of over 57000 nM. As for `NS(=O)(=O)c1ccc(Cc2c(-c3ccc(F)c(C#CC4CCC4)c3)nn(-c3nc(C(=O)O)cs3)c2CC2CC2)cc1F`, the IC50 is under 100 nM.

Consider `CC(C)c1ccc(-c2cc(-c3c(Cc4ccc(S(N)(=O)=O)cc4)c(CC4CC4)nn3-c3nc(C(=O)O)cs3)ccc2F)cc1`, for which the IC50 entry was “in the range around 29000 nM”. For `CCOC(=O)c1csc(-n2nc(-c3cccc(-c4ccccc4)c3)c(Cc3ccc(S(N)(=O)=O)cc3)c2C2(C(F)(F)F)CC2)n1` the value was over 57000 nM; for `NS(=O)(=O)c1ccc(Cc2c(-c3cccc(-c4ccc(F)cc4)c3)nn(-c3nc(C(=O)O)cs3)c2C2CC2)c(F)c1`, under 100 nM.

For `NS(=O)(=O)c1ccc(Cc2c(-c3cccc(N4CCCC(F)(F)C4)c3)nn(-c3nc(C(=O)O)cs3)c2CC2CC2)cc1F`, the IC50 was under 100 nM. As for `Cc1ccc(-c2cccc(-c3c(Cc4ccc(S(N)(=O)=O)cc4)c(CC4CC4)nn3-c3nc(C(=O)O)cs3)c2)cc1`, the IC50 result was “in the range around 29000 nM”. For `Cc1ccc(-c2cc(-c3nn(-c4nc(C(=O)O)cs4)c(C4CC4)c3Cc3ccc(S(N)(=O)=O)cc3F)ccc2F)cc1` the value was under 100 nM; for `NS(=O)(=O)c1ccc(Cc2c(-c3cccc(-c4ccccc4)c3)nn(-c3nc(C(=O)O)cs3)c2C2(C(F)(F)F)CC2)c(F)c1`, “in the range around 550 nM”; for `Cc1ccc(-c2cc(-c3nn(-c4nc(C(=O)O)cs4)c(CC4CC4)c3Cc3ccc(S(N)(=O)=O)c(F)c3)ccc2F)o1`, under 100 nM. In the case of `NS(=O)(=O)c1ccc(Cc2c(-c3ccc(F)c(Br)c3)nn(-c3nc(C(=O)O)cs3)c2CC2CC2)cc1` it was under 100 nM; in that of `CCOC(=O)c1csc(-n2nc(-c3cccc(C#CC4CCCC4)c3)c(Cc3ccc(S(N)(=O)=O)c(F)c3)c2CC2CC2)n1`, over 57000 nM. In the case of `Cc1ccc(-c2cc(-c3c(Cc4ccc(S(N)(=O)=O)cc4F)c(CC4CC4)nn3-c3nc(C(=O)O)cs3)ccc2F)cc1` it was “in the range around 29000 nM”.

`NS(=O)(=O)c1ccc(Cc2c(-c3ccc(F)c(-c4ccc(F)cc4)c3)nn(-c3nc(C(=O)O)cs3)c2C2CC2)cc1F` showed an IC50 of under 100 nM. In the case of `COc1cccc(-c2cc(-c3c(Cc4ccc(S(N)(=O)=O)c(F)c4)c(CC4CC4)nn3-c3nc(C(=O)O)cs3)ccc2F)c1` it was “in the range around 29000 nM”. In the case of `COc1cccc(-c2cc(-c3nn(-c4nc(C(=O)O)cs4)c(CC4CC4)c3Cc3ccc(S(N)(=O)=O)c(F)c3)ccc2F)c1` it was under 100 nM. `NS(=O)(=O)c1ccc(Cc2c(-c3ccccc3)nn(-c3nc(C(=O)O)cs3)c2-c2ccccc2)cc1` returned an IC50 of under 100 nM. For `NS(=O)(=O)c1ccc(Cc2cn(-c3nc(C(=O)O)cs3)nc2-c2ccc(F)c(F)c2)cc1` the value was under 100 nM; for `NS(=O)(=O)c1ccc(Cc2c(-c3ccc(F)c(C4CC4)c3)nn(-c3nc(C(=O)O)cs3)c2CC2CC2)cc1Cl`, under 100 nM; for `NS(=O)(=O)c1ccc(Cc2c(-c3ccc(F)c(C#CC(F)F)c3)nn(-c3nc(C(=O)O)cs3)c2CC2CC2)cc1F`, under 100 nM. For `COc1cccc(-c2cc(-c3c(Cc4ccc(S(N)(=O)=O)cc4)c(CC4CC4)nn3-c3nc(C(=O)O)cs3)ccc2F)c1` the value was over 57000 nM; for `NS(=O)(=O)c1ccc(Cc2c(-c3ccc(F)c(-c4ccc(F)cc4)c3)nn(-c3nc(C(=O)O)cs3)c2C2CC2)c(F)c1`, under 100 nM; for `N#CC#Cc1cc(-c2nn(-c3nc(C(=O)O)cs3)c(CC3CC3)c2Cc2ccc(S(N)(=O)=O)c(F)c2)ccc1F`, under 100 nM. For `NS(=O)(=O)c1ccc(Cc2c(-c3cccc(-c4ccccc4)c3)nn(-c3nc(C(=O)O)cs3)c2CC2CC2)c(F)c1` the value was under 100 nM; for `NS(=O)(=O)c1ccc(Cc2c(-c3cccc(-c4cccc(F)c4)c3)nn(-c3nc(C(=O)O)cs3)c2CC2CC2)cc1F`, under 100 nM. `NS(=O)(=O)c1ccc(Cc2c(-c3cccc(N4CCC(F)(F)CC4)c3)nn(-c3nc(C(=O)O)cs3)c2CC2CC2)cc1F`: the IC50 is under 100 nM. As to `Cc1ccc(-c2cc(-c3nn(-c4nc(C(=O)O)cs4)c(C(F)(F)F)c3Cc3ccc(S(N)(=O)=O)cc3)ccc2F)cc1`, the IC50 is under 100 nM. In the case of `COc1cccc(-c2cc(-c3nn(-c4nc(C(=O)O)cs4)c(C4CC4)c3Cc3ccc(S(N)(=O)=O)cc3F)ccc2F)c1` it was under 100 nM. For `NS(=O)(=O)c1ccc(Cc2c(-c3ccc(F)c(-c4ccc(F)cc4)c3)nn(-c3nc(C(=O)O)cs3)c2C(F)(F)F)cc1` the value was under 100 nM.

For `NS(=O)(=O)c1ccc(Cc2c(-c3ccc(F)c(-c4cccc(F)c4)c3)nn(-c3nc(C(=O)O)cs3)c2CC2CC2)c(F)c1`, the IC50 was under 100 nM. For `Cc1ccc(-c2cc(-c3nn(-c4nc(C(=O)O)cs4)c(C4CC4)c3Cc3ccc(S(N)(=O)=O)c(F)c3)ccc2F)cc1` the value was under 100 nM; for `Cc1cnc(-c2cc(-c3nn(-c4nc(C(=O)O)cs4)c(CC4CC4)c3Cc3ccc(S(N)(=O)=O)c(F)c3)ccc2F)s1`, under 100 nM.

Molecule `NS(=O)(=O)c1ccc(Cc2c(-c3ccc(F)c(-c4cccc(F)c4)c3)nn(-c3nc(C(=O)O)cs3)c2C2CC2)c(F)c1` had a half-inhibitory concentration (IC50) of under 100 nM. For `NS(=O)(=O)c1ccc(Cc2c(-c3cccc(OCc4ccccc4)c3)nn(-c3nc(C(=O)O)cs3)c2CC2CC2)c(F)c1` the value was under 100 nM. In the case of `NS(=O)(=O)c1ccc(Cc2c(-c3ccc(F)c(-c4cccc(F)c4)c3)nn(-c3nc(C(=O)O)cs3)c2C(F)(F)F)cc1` it was under 100 nM; in that of `Cc1ccc(-c2cccc(-c3c(Cc4ccc(S(N)(=O)=O)cc4F)c(C4CC4)nn3-c3nc(C(=O)O)cs3)c2)cc1`, “in the range around 29000 nM”.

Consider `NS(=O)(=O)c1ccc(Cc2c(CC3CC3)nn(-c3nc(C(=O)O)cs3)c2-c2cccc(-c3ccccc3)c2)c(F)c1`, for which the IC50 entry is “in the range around 29000 nM”. In the case of `Cc1ccc(-c2cc(-c3nn(-c4nc(C(=O)O)cs4)c(CC4CC4)c3Cc3ccc(S(N)(=O)=O)cc3F)ccc2F)s1` it was under 100 nM; in that of `Cc1csc(-c2cc(-c3c(Cc4ccc(S(N)(=O)=O)c(F)c4)c(CC4CC4)nn3-c3nc(C(=O)O)cs3)ccc2F)c1`, over 57000 nM; in that of `Cn1cc(-c2cc(-c3nn(-c4nc(C(=O)O)cs4)c(CC4CC4)c3Cc3ccc(S(N)(=O)=O)cc3F)ccc2F)cn1`, under 100 nM.

In turn, `NS(=O)(=O)c1ccc(Cc2c(-c3ccc(F)c(CCCCC(F)(F)F)c3)nn(-c3nc(C(=O)O)cs3)c2CC2CC2)cc1F` returned an IC50 of under 100 nM. In the case of `CCOC(=O)c1csc(-n2nc(-c3ccc(F)c(-c4cccc(OC)c4)c3)c(Cc3ccc(S(N)(=O)=O)c(F)c3)c2CC2CC2)n1` it was “in the range around 29000 nM”; in that of `C/C=C(\C)c1cc(-c2nn(-c3nc(C(=O)O)cs3)c(CC3CC3)c2Cc2ccc(S(N)(=O)=O)c(F)c2)ccc1F`, under 100 nM; in that of `CC(C)(C)C#Cc1cc(-c2nn(-c3nc(C(=O)O)cs3)c(CC3CC3)c2Cc2ccc(S(N)(=O)=O)c(F)c2)ccc1F`, under 100 nM.

On to `COc1cccc(-c2cc(-c3nn(-c4nc(C(=O)O)cs4)c(C4CC4)c3Cc3ccc(S(N)(=O)=O)c(F)c3)ccc2F)c1`, for which the IC50 is under 100 nM.

For the molecule `NS(=O)(=O)c1ccc(Cc2c(CC3CC3)nn(-c3nc(C(=O)O)cs3)c2-c2ccc(C(O)(C3CC3)C(F)(F)F)cc2)cc1F` (stereo not drawn), the IC50 entry was “in the range around 29000 nM”.

(Values after ChEMBL document CHEMBL5728971, “Small molecule inhibitors of lactate dehydrogenase and methods of use thereof” (2022).)
